Test results taken from US12350273B2, “Treatment of SMA” (Hoffmann-La Roche Inc., priority 2017, dated 2025).

Assays:
[1] = system: FOXM1B/C transcript variants; assay: FOXM1B/C mRNA expression in Cynomolgus monkey iPSCs (RT-qPCR); assay type: cell-based; settings: 24 h; for Mean FOXM1B/C relative mRNA expression (2-ΔΔCt vs control): Cynomolgus monkey iPSCs
Protocol: FIG. 5A-FIG. 5B: Effect of RO7034067 on FOXM1 mRNA expression levels in human and Cynomolgus monkey iPSCs • Cells were treated with RO7034067 for 24 hours, and FOXM1 B/C transcript variants were analyzed by RT-PCR. Data represent means±SEM of 3 repetitions and are expressed as fold change vs. controls. IC50 values are indicated. FIG. 5A. human iPSCs. FIG. 5B. Cynomolgus monkey iPSCs
Human iPSCs (hIPS_Neo_Clone_1) were cultivated in mTeSR1 (Stem Cell Technologies) as standard medium and Cynomolgus monkey iPSCs (cips_54-1285_cFIB_Clone_8) in MT medium supplemented with 10 ng/ml ActivinA and 15 ng/ml FGF2.
For gene expression profiling, stem cells were detached with Accutase (Stem Cell Technologies) and plated in 12 well plates coated with Matrigel (BD Biosciences) in the respective standard medium supplemented with 10 μM Rock inhibitor Y-27632 (Sigma-Aldrich). In order to obtain enough RNA, monkey stem cells were seeded at 15000 cells/cm2 and human stem cells were seeded at 40000 cells/cm2 24 h prior to treatment. Thereafter stem cells were treated for 24 h with serial dilutions (1:5) of test items in fresh, pre-warmed medium in a concentration range from 0.64 nM till ˜10 μM. To stop the experiment, cells were lysed in QiaGen's lysis buffer RLT with beta-mercaptoethanol.
Human and Cynomolgus monkey mRNA expression was measured with customized primer and FAM fluorescently-labeled Universal Probe Library (UPL) probes from Roche or probes from Microsynth containing a 5′ FAM label and a 3′ terminal BlackHole Dark Quencher 1 (BHQ1). The sequences of the primer and FAM labeled probes are listed as follows:
For quantitative Real-Time-PCR, cells cultivated in a 12 well plate and treated with Roche-compounds for 24 h were lysed in 500 ul/well of QiaGen's lysis buffer RLT with beta-mercaptoethanol. Total RNA was extracted with the RNeasy Mini kit combined with DNase treatment on a solid support. RNA integrity was controlled by using Nanodrop absorption spectroscopy and microfluidic capillary array electrophoresis profiles from an Agilent Bioanalyzer
2100. Between 300 ng to 800 ng of total RNA were reverse transcribed with oligo-dT primer and spiked MS2 RNA at 10 ng/uL final concentration using the Transcriptor First Strand cDNA Synthesis Kit (Roche Applied Science #04379012001) following the manufacturer's recommended protocol. The quantitative PCR was performed on a LightCycler 480 qPCR machine using 67.5 ng total RNA derived cDNA as input in a 20 μl mixture containing 1× LightCycler 480 Probes Master, 0.4 μM forward and reverse primers, and 0.2 μM FAM labeled hydrolysis probe. The temperature program consisted of pre-incubation at 95° C. for 10 min, followed by 50 cycles of amplification (95° C. for 10 s, 60° C. for 30 s, 72° C. for 5 s). Negative control reactions were conducted in the absence of cDNA template to confirm absence of cDNA contamination in the master mix. Measurements of Ct (cycle threshold)-values were performed for each sample-mRNA combination. Using the 2-ΔΔCt method (Livak K J et al. Method. Methods. 2001; 25(4):402-8), the data are presented as the fold change in gene expression normalized to an endogenous reference gene and relative to the untreated control. To derive individual ΔCt values, the Ct value for each target mRNA of each sample was normalized to the Ct value of the endogenous reference mRNA of GAPDH (glyceraldehyde-3-phosphate dehydrogenase). The […] was calculated by subtracting the ΔCt value of the vehicle-control group from the respective ΔCt value of each treatment group. Resultant expression ratios (2-ΔΔCt) mirrored treatment-related mRNA expression changes versus vehicle-controls. […] The model to derive the IC50 assumes that the dose response curves has a standard slope, equal to a Hill slope (or slope factor) of −1.0. Model equation: Y=Bottom+(Top-Bottom)/(1+10^((X-Log IC50))); with Y being the response data and X being log 10 concentrations in μM.

Cynomolgus monkey iPSCs = assay: Cell cycle analysis of Cynomolgus monkey iPSCs (flow cytometry); assay type: cell-based; settings: for percentage of events in G1 phase, mean / percentage of events in G2 phase, mean / percentage of events in S phase, mean: Cynomolgus monkey iPSCs, 24 h
Protocol: For the analysis of the cell cycle, monkey stem cells were detached with Accutase (Stem Cell Technologies) and plated at 15000 cells/cm2 in 6 well plates coated with Matrigel (BD Biosciences) in MT medium supplemented with 10 ng/ml ActivinA, 15 ng/ml FGF2, and 10 μM Rock inhibitor. Cells were expanded for 1 day and then synchronized by starvation for 7 h in MT medium without supplements FGF2 and ActivinA. Before flow cytometry, cells were incubated for 24 h with fresh MT medium containing supplements FGF2 and ActivinA and test items at 80 nM, 400 nM, and 2000 nM or 30 nM rapamycin as positive control to arrest cells in G1 phase. Human stem cells were detached with Accutase (Stem Cell Technologies) and plated at 40000 cells/cm2 in 6 well plates coated with Matrigel (BD Biosciences) in mTeSR1 supplemented with 10 μM Rock Inhibitor Y-27632 (Sigma-Aldrich). Cells were expanded for 3 days with daily medium change. Since human iPSCs lose their properties during starvation by growth factor withdrawal, stem cells were synchronized with 200 ng/ml Nocodazole (Sigma-Aldrich) for 5 h and washed subsequently 2 times with mTesR1 Medium. Before flow cytometry, cells were incubated for 24 h with fresh TesR1 medium containing test items at 80 nM, 400 nM, and 2000 nM or 30 nM rapamycin as positive control to arrest cells in G1 phase.
For cell cycle analysis, human iPSCs were washed with PBS, detached with Accutase (Stem Cell Technologies) and collected by centrifugation. Cells were stained for 1 h at 37° C. with 600 ul of 7 AAD/Saponin/RNAse mix ([…] 7 AAD (#559925, BD), 50 μg/ml RNase, and 0.03% Saponin dissolved in FACS buffer (PBS, 5% FBS, 10 mM Hepes)). Cynomolgus monkey iPSCs were washed with PBS, detached with Accutase (Stem Cell Technologies) and collected by centrifugation. Cells were stained for 30 min at 37° C. in 300 ul standard MT medium (with FGF2 and ActivinA) containing 1 ul Vybrant Dye Cycle Violet Stain (#V35003, 1000× stock, Invitrogen) per ml medium. Additionally 2 ul 7 AAD (50 μg/ml 7 AAD) were added without permeabilization to label dead cells; cells were incubated for 10 min at 37° C. Flow cytometry analysis was performed using a Canto II cytometer (BD Biosciences) and data were analysed with the FlowJo software.

Cc1cn2nc(-c3cc(=O)n4cc(N5CCNC6(CC6)C5)ccc4n3)cc(C)c2n1 [RO7034067, 7-(4,7-diazaspiro[2.5]octan-7-yl)-2-(2,8-dimethylimidazo[1,2-b]pyridazin-6-yl)pyrido[1,2-a]pyrimidin-4-one]
Mean FOXM1B/C relative mRNA expression (2-ΔΔCt vs control) ([1]; 0.64 nM): 0.967
Mean FOXM1B/C relative mRNA expression (2-ΔΔCt vs control) ([1]; 3.2 nM): 0.990
Mean FOXM1B/C relative mRNA expression (2-ΔΔCt vs control) ([1]; 16 nM): 0.963
Mean FOXM1B/C relative mRNA expression (2-ΔΔCt vs control) ([1]; 80 nM): 0.704
Mean FOXM1B/C relative mRNA expression (2-ΔΔCt vs control) ([1]; 400 nM): 0.176
Mean FOXM1B/C relative mRNA expression (2-ΔΔCt vs control) ([1]; 2000 nM): 0.023
Mean FOXM1B/C relative mRNA expression (2-ΔΔCt vs control) ([1]; 10000 nM): 0.037
IC50 ([1]; Macaca fascicularis, iPSC, monkey iPSCs, read-out: IC50 on expression levels of FOXM1B/C): 155 nM
percentage of events in G1 phase, mean (Cynomolgus monkey iPSCs; 80 nM): 33.8%
percentage of events in G2 phase, mean (Cynomolgus monkey iPSCs; 80 nM): 52.2%
percentage of events in S phase, mean (Cynomolgus monkey iPSCs; 80 nM): 14.0%
percentage of events in G1 phase, mean (Cynomolgus monkey iPSCs; 400 nM): 30.3%
percentage of events in G2 phase, mean (Cynomolgus monkey iPSCs; 400 nM): 55.8%
percentage of events in S phase, mean (Cynomolgus monkey iPSCs; 400 nM): 14.0%
percentage of events in G1 phase, mean (Cynomolgus monkey iPSCs; 2000 nM): 25.3%
percentage of events in G2 phase, mean (Cynomolgus monkey iPSCs; 2000 nM): 61.3%
percentage of events in S phase, mean (Cynomolgus monkey iPSCs; 2000 nM): 13.4%
effect on cell cycle (Cynomolgus monkey iPSCs; monkey iPSCs, concentration-dependent): cell cycle arrest in G2 phase
